Several values for one entry are separate records, joined by “and”; a condition that tells them apart may be missing. Identical values can stand only once. Like-named read-outs stand apart in the source and are kept apart here.
What was measured:
[1] = test system: P. berghei; design: species or system Plasmodium berghei
[2] = in vivo; conditions: rat, iv, 1 mg/kg
[3] = Metabolic stability and metabolite profile in rat liver microsomes; type: in vitro ADME
[4] = test system: P. falciparum K13 wild-type and mutant lines (Cam3.II, V1/S); experiment: microbe, parasite or virus in culture; type: cell-based, Plasmodium falciparum; conditions: read-out: IC50 Mean
[5] = test system: major human CYP450s (all isoforms together); experiment: in vitro
[6] = Metabolic stability and metabolite profile in mouse liver microsomes; type: in vitro ADME
[7] = Metabolic stability and metabolite profile in human liver microsomes; conditions: for Microsome-Predicted EH: human liver microsomes

With `FC1CCN(CCOc2ccc(C3CCC4(CC3)OOC3(OO4)C4CC5CC(C4)CC3C5)cc2)CC1` (centres unmarked) [Compound E209] the “In vivo (Pb) MSD (days) at 1 x 30 mg/kg” value [1] was 26.3 days and 25.0 (15, 30, 30) (2 cures) days, the cure rate ([1]; in vivo) was 66% and the half-life [2] was 4 h. The “% Substrate Consumed” value ([3]; rat liver microsomes with NADPH, 60 minutes) was 54%, the “Microsome-Predicted EH” value ([3]; rat liver microsomes, substrate 1 µM) was 0.48 and the half-life at 1 µM ([3]; rat liver microsomes, substrate 1 µM, read-out: Degradation half-life) was 0.8 h. For the same molecule, the microsomal CLint at 1 µM ([3]; rat liver microsomes, substrate 1 µM, read-out: In vitro CLint) was 36 µL/min/mg, the “Microsome-Predicted EH” value ([3]; rat liver microsomes, substrate 5 µM) was 0.45 and the half-life at 5 µM ([3]; rat liver microsomes, substrate 5 µM, read-out: Degradation half-life) was 0.9 h. For the same molecule, the microsomal CLint at 5 µM ([3]; rat liver microsomes, substrate 5 µM, read-out: In vitro CLint) was 32 µL/min/mg, the IC50 ([4]; Plasmodium falciparum, 72 h) was 8.71 nM and the IC50 [4] was 7.6 nM and 7.51 nM and 8.46 nM and 7.76 nM and 7.81 nM. For the same molecule, the IC50 [5] was > 20000 nM, the “% Substrate Consumed” value ([6]; mouse liver microsomes with NADPH, 60 minutes) was 44% and the “Microsome-Predicted EH” value ([6]; mouse liver microsomes, substrate 1 µM) was 0.22. The half-life at 1 µM ([6]; mouse liver microsomes, substrate 1 µM, read-out: Degradation half-life) was 2.2 h, the microsomal CLint at 1 µM ([6]; mouse liver microsomes, substrate 1 µM, read-out: In vitro CLint) was 13 µL/min/mg and the “Microsome-Predicted EH” value ([6]; mouse liver microsomes, substrate 5 µM) was 0.25. The half-life at 5 µM ([6]; mouse liver microsomes, substrate 5 µM, read-out: Degradation half-life) was 2.48 h, the microsomal CLint at 5 µM ([6]; mouse liver microsomes, substrate 5 µM, read-out: In vitro CLint) was 17 µL/min/mg and the “% Substrate Consumed” value ([7]; human liver microsomes with NADPH, 60 minutes) was 45%. The “Microsome-Predicted EH” value ([7]; substrate 1 µM) was 0.50, the “Microsome-Predicted EH” value ([7]; substrate 5 µM) was 0.48 and the half-life at 1 µM ([7]; human, liver microsomes) was 1.13 h. It also gave a half-life at 5 µM ([7]; human, liver microsomes) of 1.27 h and a microsomal CLint at 1 µM ([7]; human, liver microsomes) of 25 µL/min/mg.
